Source: PubChem BioAssay (NCI)
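Method: 48-hour compound exposure of cells in 96-well plates, five concentrations, linear interpolation of endpoints. TGI denotes the concentration required for complete inhibition of growth.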

Legend:
Test in all cases: inhibition of tumour cell growth, NCI panel, 48 h
786-0 renal = test system: 786-0 renal
A498 renal = test system: A498 renal
A549 NSCLC = test system: A549 NSCLC
ACHN renal = test system: ACHN renal
BT-549 breast = test system: BT-549 breast
CAKI-1 renal = test system: CAKI-1 renal
CCRF-CEM leukemia = test system: CCRF-CEM leukemia
COLO 205 colon = test system: COLO 205 colon
DU-145 prostate = test system: DU-145 prostate
EKVX NSCLC = test system: EKVX NSCLC
HCC-2998 colon = test system: HCC-2998 colon
HCT-116 colon = test system: HCT-116 colon
HCT-15 colon = test system: HCT-15 colon
HL-60(TB) leukemia = test system: HL-60(TB) leukemia
HOP-62 NSCLC = test system: HOP-62 NSCLC
HOP-92 NSCLC = test system: HOP-92 NSCLC
HT29 colon = test system: HT29 colon
IGROV1 ovarian = test system: IGROV1 ovarian
K-562 leukemia = test system: K-562 leukemia
KM12 colon = test system: KM12 colon
LOX IMVI melanoma = test system: LOX IMVI melanoma
MALME-3M melanoma = test system: MALME-3M melanoma
MCF7 breast = test system: MCF7 breast
MDA-MB-231 breast = test system: MDA-MB-231 breast
MDA-MB-435 = test system: MDA-MB-435
MDA-N = test system: MDA-N
MOLT-4 leukemia = test system: MOLT-4 leukemia
NCI-H226 lung = test system: NCI-H226 lung
NCI-H23 lung = test system: NCI-H23 lung
NCI-H460 lung = test system: NCI-H460 lung
NCI-H522 lung = test system: NCI-H522 lung
NCI/ADR-RES ovarian = test system: NCI/ADR-RES ovarian
OVCAR-3 ovarian = test system: OVCAR-3 ovarian
OVCAR-4 ovarian = test system: OVCAR-4 ovarian
OVCAR-5 ovarian = test system: OVCAR-5 ovarian
OVCAR-8 ovarian = test system: OVCAR-8 ovarian
PC-3 prostate = test system: PC-3 prostate
RXF 393 renal = test system: RXF 393 renal
SF-268 CNS = test system: SF-268 CNS
SF-295 CNS = test system: SF-295 CNS
SK-MEL-2 melanoma = test system: SK-MEL-2 melanoma
SK-MEL-28 melanoma = test system: SK-MEL-28 melanoma
SK-MEL-5 melanoma = test system: SK-MEL-5 melanoma
SN12C renal = test system: SN12C renal
SNB-19 CNS = test system: SNB-19 CNS
SNB-75 CNS = test system: SNB-75 CNS
SR leukemia = test system: SR leukemia
SW-620 colon = test system: SW-620 colon
T-47D breast = test system: T-47D breast
TK-10 renal = test system: TK-10 renal
U251 CNS = test system: U251 CNS
UACC-257 melanoma = test system: UACC-257 melanoma
UACC-62 melanoma = test system: UACC-62 melanoma
UO-31 renal = test system: UO-31 renal
HS 578T breast = test system: HS 578T breast
M14 melanoma = test system: M14 melanoma
RPMI-8226 leukemia = test system: RPMI-8226 leukemia
SF-539 CNS = test system: SF-539 CNS
SK-OV-3 ovarian = test system: SK-OV-3 ovarian

Measured: TGI

CCOC(=O)C1C(=O)CC(C)(O)C(C(=O)OCC)C1c1ccc(O)c(OC)c1 (stereo not given)
> 100 µM: 786-0 renal | A498 renal | A549 NSCLC | ACHN renal | BT-549 breast | CAKI-1 renal | CCRF-CEM leukemia | COLO 205 colon | DU-145 prostate | EKVX NSCLC | HCC-2998 colon | HCT-116 colon | HCT-15 colon | HL-60(TB) leukemia | HOP-62 NSCLC | HOP-92 NSCLC | HT29 colon | IGROV1 ovarian | K-562 leukemia | KM12 colon | LOX IMVI melanoma | MALME-3M melanoma | MCF7 breast | MDA-MB-231 breast | MDA-MB-435 | MDA-N | MOLT-4 leukemia | NCI-H226 lung | NCI-H23 lung | NCI-H460 lung | NCI-H522 lung | NCI/ADR-RES ovarian | OVCAR-3 ovarian | OVCAR-4 ovarian | OVCAR-5 ovarian | OVCAR-8 ovarian | PC-3 prostate | RXF 393 renal | SF-268 CNS | SF-295 CNS | SK-MEL-2 melanoma | SK-MEL-28 melanoma | SK-MEL-5 melanoma | SN12C renal | SNB-19 CNS | SNB-75 CNS | SR leukemia | SW-620 colon | T-47D breast | TK-10 renal | U251 CNS | UACC-257 melanoma | UACC-62 melanoma | UO-31 renal

CNC(=S)N/N=C(\C)c1ccc(OC)cc1O
94.2 µM: OVCAR-4 ovarian
> 69.5 µM: SK-MEL-5 melanoma
> 100 µM: 786-0 renal | A498 renal | A549 NSCLC | ACHN renal | BT-549 breast | CAKI-1 renal | CCRF-CEM leukemia | COLO 205 colon | DU-145 prostate | EKVX NSCLC | HCC-2998 colon | HCT-116 colon | HCT-15 colon | HL-60(TB) leukemia | HOP-62 NSCLC | HOP-92 NSCLC | HS 578T breast | HT29 colon | IGROV1 ovarian | K-562 leukemia | KM12 colon | LOX IMVI melanoma | M14 melanoma | MALME-3M melanoma | MDA-MB-231 breast | MDA-MB-435 | MDA-N | MOLT-4 leukemia | NCI-H226 lung | NCI-H23 lung | NCI-H460 lung | NCI-H522 lung | NCI/ADR-RES ovarian | OVCAR-3 ovarian | OVCAR-5 ovarian | OVCAR-8 ovarian | PC-3 prostate | RPMI-8226 leukemia | RXF 393 renal | SF-268 CNS | SF-295 CNS | SF-539 CNS | SK-MEL-2 melanoma | SK-MEL-28 melanoma | SK-OV-3 ovarian | SN12C renal | SNB-19 CNS | SNB-75 CNS | SR leukemia | SW-620 colon | T-47D breast | U251 CNS | UACC-257 melanoma | UACC-62 melanoma | UO-31 renal

COC(=O)[C@@H]1C[C@H]2[C@H](c3ccccc3Br)[C@@H](OC(C)=O)[C@@H](OCc3ccccc3)ON2O1
> 100 µM: 786-0 renal | A549 NSCLC | ACHN renal | BT-549 breast | CAKI-1 renal | CCRF-CEM leukemia | COLO 205 colon | DU-145 prostate | EKVX NSCLC | HCC-2998 colon | HCT-116 colon | HCT-15 colon | HOP-62 NSCLC | HT29 colon | IGROV1 ovarian | K-562 leukemia | KM12 colon | LOX IMVI melanoma | M14 melanoma | MCF7 breast | MDA-MB-231 breast | MDA-MB-435 | MDA-N | MOLT-4 leukemia | NCI-H23 lung | NCI-H460 lung | NCI/ADR-RES ovarian | OVCAR-3 ovarian | OVCAR-4 ovarian | OVCAR-5 ovarian | OVCAR-8 ovarian | PC-3 prostate | RXF 393 renal | SF-268 CNS | SF-295 CNS | SF-539 CNS | SK-MEL-2 melanoma | SK-MEL-28 melanoma | SK-MEL-5 melanoma | SK-OV-3 ovarian | SN12C renal | SNB-19 CNS | SNB-75 CNS | SR leukemia | SW-620 colon | T-47D breast | TK-10 renal | U251 CNS | UACC-257 melanoma | UACC-62 melanoma | UO-31 renal

Cn1cc(C=C(C#N)C#N)c(=O)n(C)c1=O
> 100 µM: 786-0 renal | A498 renal | A549 NSCLC | ACHN renal | BT-549 breast | CAKI-1 renal | COLO 205 colon | DU-145 prostate | EKVX NSCLC | HCT-116 colon | HCT-15 colon | HOP-62 NSCLC | HOP-92 NSCLC | HS 578T breast | HT29 colon | IGROV1 ovarian | KM12 colon | LOX IMVI melanoma | M14 melanoma | MCF7 breast | MDA-MB-231 breast | MDA-MB-435 | MDA-N | MOLT-4 leukemia | NCI-H226 lung | NCI-H23 lung | NCI-H460 lung | NCI-H522 lung | NCI/ADR-RES ovarian | OVCAR-3 ovarian | OVCAR-4 ovarian | OVCAR-5 ovarian | OVCAR-8 ovarian | PC-3 prostate | RPMI-8226 leukemia | RXF 393 renal | SF-268 CNS | SF-295 CNS | SF-539 CNS | SK-MEL-2 melanoma | SK-MEL-28 melanoma | SK-MEL-5 melanoma | SK-OV-3 ovarian | SN12C renal | SNB-19 CNS | SNB-75 CNS | SW-620 colon | T-47D breast | TK-10 renal | U251 CNS | UACC-257 melanoma | UACC-62 melanoma | UO-31 renal
